Results on 1 molecule are retold here after patent US20260108526A1, “BIOMARKER FOR TREATMENT OF SOLID CANCER WITH IMIDAZO[4,5-b]PYRIDINE DERIVATIVE” (CHORDIA THERAPEUTICS INC., priority 2022, published 2026).

What all share (assay): Mouse subcutaneous transplantation model with human-cancer-patient-derived tumor
Holding throughout (format): in vivo

Assay [1] deals with NCC_J-PDX_0047TG4 (breast cancer). The note with it: NCC_J-PDX_0047TG4, MYCC CNV 2; oral 25 mg/kg twice daily, twice a week; day 14 or 28. An excerpt: (§1) Among mouse subcutaneous transplantation models with different human-cancer-patient-derived tumors, which had been established by National Cancer Center Research Institute, seven models in total with five cancer species of ovarian cancer, lung cancer, gastric cancer, breast cancer, and large intestine cancer, were used for examination in the present test. For these models, results of measurement of MYCC gene amplification have been obtained by National Cancer Center Research Institute.
(§2) A tumor piece in the form of a 2- to 3-mm cube was subcutaneously transplanted into the abdomen of each 6- to 11-week-old female NOG mouse. Calipers were used in measuring tumor volume, which was calculated from the calculation formula: tumor volume=(tumor major axis×tumor minor axis×tumor minor axis)/2. When the tumor volumes reached approximately 140 to 230 mm^3, the mice were grouped into two groups each consisting of two to four mice. Compound A was orally administered in an intermittent manner according to a schedule in which a twice-daily dose of 25 mg/kg was administered twice a week for 14 or 28 days. To a control group, 0.5% methylcellulose solution was orally administered. After the grouping, measurement of tumor volume was performed twice a week. T/C (%) on day 14 or 28 was used as an index of antitumor effect.

Assay [2] has as its system NCC_J-PDX_0569TG5 (ovarian cancer). The settings on record: NCC_J-PDX_0569TG5, MYCC CNV 8; oral 25 mg/kg twice daily, twice a week; day 14 or 28.
Excerpt: as §1, §2

In assay [3] the test system is NCC_J-PDX_0189TG4 (non-small-cell lung cancer). The note with it: NCC_J-PDX_0189TG4, MYCC CNV 4; oral 25 mg/kg twice daily, twice a week; day 14 or 28.
Excerpt: as §1, §2

In assay [4] the test system is NCC_J-PDX_0735TG5 (ovarian cancer). The note with it: NCC_J-PDX_0735TG5, MYCC CNV 3; oral 25 mg/kg twice daily, twice a week; day 14 or 28.
Excerpt: as §1, §2

The subject of assay [5] is NCC_J-PDX_0009TG4 (gastric cancer). The settings on record: NCC_J-PDX_0009TG4, MYCC CNV 3; oral 25 mg/kg twice daily, twice a week; day 14 or 28.
Excerpt: as §1, §2

Assay [6] relates to NCC_J-PDX_0034TG4 (non-small-cell lung cancer). The note with it: NCC_J-PDX_0034TG4, MYCC CNV 2; oral 25 mg/kg twice daily, twice a week; day 14 or 28.
Excerpt: as §1, §2

For assay [7], the system named is NCC_J-PDX_0293TG5 (large intestine cancer). The note with it: NCC_J-PDX_0293TG5, MYCC CNV 2; oral 25 mg/kg twice daily, twice a week; day 14 or 28.
Excerpt: as §1, §2

With `COc1ncnn2ccc(-c3cnc4nc(C)n(Cc5nnc([C@@H](C)F)o5)c4c3)c12` [compound A], the “T/C(%)” value in assay [1] is on record as −27.8%; in assay [2], −71.1%; in assay [3] it was −28.0%; in assay [4], −32.8%; in assay [5], −44.3%; in assay [6] it was −9.9%. Besides, in assay [7], the “T/C(%)” value is listed as −26.1%.
